Results taken from publication PMC5218480 (PLoS ONE, 2017).

System: MV-4-11 cells
Assay: Gene expression microarray analysis (Affymetrix PrimeView) and GSEA
Format: cell-based, human
Design: RFU PODN (11730768_x_at) / Fold change /veh PODN (11730768_x_at) / RFU LINC00158 (11744669_a_at) / Fold change /veh LINC00158 (11744669_a_at) / RFU DUSP10 (11751237_a_at) / Fold change /veh DUSP10 (11751237_a_at) / RFU ID3 (11757404_x_at) / Fold change /veh ID3 (11757404_x_at) / RFU PLEKHG5 (11737974_s_at) / Fold change /veh PLEKHG5 (11737974_s_at) / RFU LRRC4B (11730491_at) / Fold change /veh LRRC4B (11730491_at) / RFU GIMAP4 (11747438_a_at) / Fold change /veh GIMAP4 (11747438_a_at) / RFU KRT8 (11758183_x_at) / Fold change /veh KRT8 (11758183_x_at) / RFU CNN1 (11734310_a_at) / Fold change /veh CNN1 (11734310_a_at) / RFU VPS37D (11726825_at) / Fold change /veh VPS37D (11726825_at) / RFU C10orf10 (11716522_x_at) / Fold change /veh C10orf10 (11716522_x_at) / RFU KIR2DL2 /// KIR2DL4 /// KIR2DL5A /// KIR2DL5B /// KIR2DS1 /// KIR2DS2 /// KIR2DS3 /// KIR2DS4 /// KIR3DL3 /// KIR3DL3 /// KIR3DS1 (11738374_at) / Fold change /veh KIR2DL2 /// KIR2DL4 /// KIR2DL5A /// KIR2DL5B /// KIR2DS1 /// KIR2DS2 /// KIR2DS3 /// KIR2DS4 /// KIR3DL3 /// KIR3DL3 /// KIR3DS1 (11738374_at) / RFU C1QL1 (11718748_at) / Fold change /veh C1QL1 (11718748_at) / RFU TMPRSS4 (11747572_a_at) / Fold change /veh TMPRSS4 (11747572_a_at) / RFU HAMP (11756126_x_at) / Fold change /veh HAMP (11756126_x_at) / RFU RNFT2 (11725882_a_at) / Fold change /veh RNFT2 (11725882_a_at) / RFU NR4A2 (11747474_a_at) / Fold change /veh NR4A2 (11747474_a_at) / RFU ABCC12 (11746883_a_at) / Fold change /veh ABCC12 (11746883_a_at) / RFU TMEM136 (11760407_x_at) / Fold change /veh TMEM136 (11760407_x_at) / RFU CLDN22 /// WWC2 (11732394_at) / Fold change /veh CLDN22 /// WWC2 (11732394_at) / RFU HLA-DPB1 (11760878_x_at) / Fold change /veh HLA-DPB1 (11760878_x_at) / RFU SPINT1 (11716480_a_at) / Fold change /veh SPINT1 (11716480_a_at) / RFU GAP43 (11754022_s_at) / Fold change /veh GAP43 (11754022_s_at) / RFU A4GNT (11735810_at) / Fold change /veh A4GNT (11735810_at) / RFU PRB3 (11715151_x_at) / Fold change /veh PRB3 (11715151_x_at) / RFU TUBB4B (11761932_at) / Fold change /veh TUBB4B (11761932_at) / RFU CAPN14 (11732068_a_at) / Fold change /veh CAPN14 (11732068_a_at) / RFU TMCC2 (11721928_a_at) / Fold change /veh TMCC2 (11721928_a_at) / RFU IRGQ (11745062_a_at) / Fold change /veh IRGQ (11745062_a_at) / RFU FAM174B (11720279_a_at) / Fold change /veh FAM174B (11720279_a_at) / RFU TMPRSS4 (11748680_a_at) / Fold change /veh TMPRSS4 (11748680_a_at) / RFU FAM212B (11763350_a_at) / Fold change /veh FAM212B (11763350_a_at) / RFU PLEKHG5 (11743358_a_at) / Fold change /veh PLEKHG5 (11743358_a_at) / RFU ZSCAN30 (11745921_a_at) / Fold change /veh ZSCAN30 (11745921_a_at) / RFU CMKLR1 (11741424_a_at) / Fold change /veh CMKLR1 (11741424_a_at) / RFU LOC101060620 /// MAPK8IP1 (11723275_at) / Fold change /veh LOC101060620 /// MAPK8IP1 (11723275_at) / RFU SPTSSB (11747773_x_at) / Fold change /veh SPTSSB (11747773_x_at) / RFU PRSS12 (11739890_at) / Fold change /veh PRSS12 (11739890_at) / RFU BIN1 (11741810_x_at) / Fold change /veh BIN1 (11741810_x_at) / RFU WNT11 (11732464_a_at) / Fold change /veh WNT11 (11732464_a_at) / RFU C10orf10 (11716521_a_at) / Fold change /veh C10orf10 (11716521_a_at) / RFU C5orf56 (11738089_at) / Fold change /veh C5orf56 (11738089_at) / RFU CYB561 (11721691_x_at) / Fold change /veh CYB561 (11721691_x_at) / RFU ANKRD19P (11752326_a_at) / Fold change /veh ANKRD19P (11752326_a_at) / RFU OR2T12 /// OR2T33 /// OR2T8 (11738714_s_at) / Fold change /veh OR2T12 /// OR2T33 /// OR2T8 (11738714_s_at) / RFU VCAN (11748164_a_at) / Fold change /veh VCAN (11748164_a_at) / RFU JSRP1 (11732532_at) / Fold change /veh JSRP1 (11732532_at) / RFU KRTAP10-11 (11738290_x_at) / Fold change /veh KRTAP10-11 (11738290_x_at) / RFU MYO3A (11730013_a_at) / Fold change /veh MYO3A (11730013_a_at) / RFU EBF3 (11725865_a_at) / Fold change /veh EBF3 (11725865_a_at) / RFU CAMK2N1 (11719241_x_at) / Fold change /veh CAMK2N1 (11719241_x_at) / RFU C5orf56 (11738088_a_at) / Fold change /veh C5orf56 (11738088_a_at) / RFU OLFML3 (11715873_a_at) / Fold change /veh OLFML3 (11715873_a_at) / RFU LOC100653217 /// NTM (11731650_a_at) / Fold change /veh LOC100653217 /// NTM (11731650_a_at) / RFU MAPK11 (11762145_a_at) / Fold change /veh MAPK11 (11762145_a_at) / RFU FIZ1 (11724087_x_at) / Fold change /veh FIZ1 (11724087_x_at) / RFU OASL (11726364_x_at) / Fold change /veh OASL (11726364_x_at) / RFU SOX15 (11748057_x_at) / Fold change /veh SOX15 (11748057_x_at) / RFU CD79A (11719716_a_at) / Fold change /veh CD79A (11719716_a_at) / RFU HIST1H1D (11736915_at) / Fold change /veh HIST1H1D (11736915_at) / RFU CASKIN2 (11723855_a_at) / Fold change /veh CASKIN2 (11723855_a_at) / RFU LOC730098 (11760151_x_at) / Fold change /veh LOC730098 (11760151_x_at) / RFU OR4N2 (11742367_at) / Fold change /veh OR4N2 (11742367_at) / RFU PRRT2 (11749266_a_at) / Fold change /veh PRRT2 (11749266_a_at) / RFU SNX32 (11753110_a_at) / Fold change /veh SNX32 (11753110_a_at) / RFU CDHR5 (11726645_a_at) / Fold change /veh CDHR5 (11726645_a_at) / RFU RCAN1 (11760418_a_at) / Fold change /veh RCAN1 (11760418_a_at) / RFU FAM167A (11723789_a_at) / Fold change /veh FAM167A (11723789_a_at) / RFU FAM26E (11764081_at) / Fold change /veh FAM26E (11764081_at) / RFU ISYNA1 (11749810_s_at) / Fold change /veh ISYNA1 (11749810_s_at) / RFU ACY1 (11761880_at) / Fold change /veh ACY1 (11761880_at) / RFU 11764098_at / Fold change /veh 11764098_at / RFU SAMD14 (11745864_x_at) / Fold change /veh SAMD14 (11745864_x_at) / RFU NPB (11741838_a_at) / Fold change /veh NPB (11741838_a_at) / RFU TMPRSS6 (11731388_a_at) / Fold change /veh TMPRSS6 (11731388_a_at) / RFU KRTAP10-2 (11738614_at) / Fold change /veh KRTAP10-2 (11738614_at) / RFU ARHGAP8 /// PRR5-ARHGAP8 (11727945_x_at) / Fold change /veh ARHGAP8 /// PRR5-ARHGAP8 (11727945_x_at) / RFU KRTAP5-7 /// NADSYN1 (11734609_at) / Fold change /veh KRTAP5-7 /// NADSYN1 (11734609_at) / RFU RASL12 (11751679_a_at) / Fold change /veh RASL12 (11751679_a_at) / RFU CDKN2B (11736163_a_at) / Fold change /veh CDKN2B (11736163_a_at) / RFU PRF1 (11729649_at) / Fold change /veh PRF1 (11729649_at) / RFU, ZNF638 /// ZNF638-IT1 / Fold change vs veh, ZNF638 /// ZNF638-IT1 / RFU, PANK3 / Fold change vs veh, PANK3 / RFU, SH3YL1 / Fold change vs veh, SH3YL1 / RFU, ZEB2 / Fold change vs veh, ZEB2 / RFU, NRIP1 / Fold change vs veh, NRIP1 / RFU, PTTG1IP / Fold change vs veh, PTTG1IP / RFU, CAPN2 / Fold change vs veh, CAPN2 / RFU, MED14 / Fold change vs veh, MED14 / RFU, SNORA58 / Fold change vs veh, SNORA58 / RFU, C1orf63 / Fold change vs veh, C1orf63 / RFU, LRRFIP1 / Fold change vs veh, LRRFIP1 / RFU, NDUFAF7 / Fold change vs veh, NDUFAF7 / RFU, SLC12A2 / Fold change vs veh, SLC12A2 / RFU, IBTK / Fold change vs veh, IBTK / RFU, ESF1 / Fold change vs veh, ESF1 / Fold change vs veh, TMEM50B / RFU, TAOK1 / Fold change vs veh, TAOK1 / RFU, ACBD3 / Fold change vs veh, ACBD3 / RFU, TMA16 / Fold change vs veh, TMA16 / RFU, RWDD3 / Fold change vs veh, RWDD3 / RFU, BCAT1 / Fold change vs veh, BCAT1 / RFU, EDEM3 / Fold change vs veh, EDEM3 / RFU, TMEM33 / Fold change vs veh, TMEM33 / RFU, WDR75 / Fold change vs veh, WDR75 / RFU, AHCTF1 / Fold change vs veh, AHCTF1 / RFU, TFRC / Fold change vs veh, TFRC / RFU, ZDHHC17 / Fold change vs veh, ZDHHC17 / RFU, NOM1 / Fold change vs veh, NOM1 / RFU, ARL8B / Fold change vs veh, ARL8B / RFU, ZBTB11 / Fold change vs veh, ZBTB11 / RFU, TAMM41 / Fold change vs veh, TAMM41 / RFU, KIAA1704 /// LOC100996395 / Fold change vs veh, KIAA1704 /// LOC100996395 / RFU, ING1 / Fold change vs veh, ING1 / RFU, TRMT61B / Fold change vs veh, TRMT61B / RFU, FUBP3 / Fold change vs veh, FUBP3 / RFU, TP53 / Fold change vs veh, TP53 / RFU, TNKS2 / Fold change vs veh, TNKS2 / RFU, ZFP14 / Fold change vs veh, ZFP14 / RFU, ACTR2 / Fold change vs veh, ACTR2 / RFU, PPP3R1 / Fold change vs veh, PPP3R1 / RFU, PIK3R1 / Fold change vs veh, PIK3R1 / RFU, HNRNPA1 / Fold change vs veh, HNRNPA1 / RFU, RNF170 / Fold change vs veh, RNF170 / RFU, ZNF28 / Fold change vs veh, ZNF28 / RFU, RNGTT / Fold change vs veh, RNGTT / RFU, OGT / Fold change vs veh, OGT / RFU, BRD1 / Fold change vs veh, BRD1 / RFU, MARS / Fold change vs veh, MARS / RFU, ZNF655 / Fold change vs veh, ZNF655 / RFU, FAHD1 / Fold change vs veh, FAHD1 / RFU, BDP1 / Fold change vs veh, BDP1 / RFU, LRRCC1 / Fold change vs veh, LRRCC1 / RFU, ARID1A / Fold change vs veh, ARID1A / RFU, ZNF146 / Fold change vs veh, ZNF146 / RFU, ZNF330 / Fold change vs veh, ZNF330 / RFU, GPN3 / Fold change vs veh, GPN3 / RFU, C9orf123 / Fold change vs veh, C9orf123 / RFU, N4BP2L2 / Fold change vs veh, N4BP2L2 / RFU, ARFIP1 / Fold change vs veh, ARFIP1 / RFU, FAM179B / Fold change vs veh, FAM179B / RFU, BCL10 / Fold change vs veh, BCL10 / RFU, UHRF1BP1L / Fold change vs veh, UHRF1BP1L / RFU, BET1 / Fold change vs veh, BET1 / RFU, CNOT2 / Fold change vs veh, CNOT2 / RFU, ZNF268 / Fold change vs veh, ZNF268 / Fold change vs veh, ZNF507 / RFU, DGCR2 / Fold change vs veh, DGCR2 / RFU, WDSUB1 / Fold change vs veh, WDSUB1 / Fold change vs veh, HSP90B1 /// MIR3652 / RFU, ADSS / Fold change vs veh, ADSS / RFU, GK / Fold change vs veh, GK / RFU, ZNF148 / Fold change vs veh, ZNF148 / RFU, TAF9 / Fold change vs veh, TAF9 / RFU, SLC1A5 / Fold change vs veh, SLC1A5 / RFU, SLMO2 / Fold change vs veh, SLMO2 / RFU, ABCC4 / Fold change vs veh, ABCC4 / RFU, LOC101060439 /// RAP1B / Fold change vs veh, LOC101060439 /// RAP1B / RFU, RFX7 / Fold change vs veh, RFX7 / RFU, GTPBP10 / Fold change vs veh, GTPBP10 / RFU, CNEP1R1 / Fold change vs veh, CNEP1R1 / RFU, BIVM-ERCC5 /// ERCC5 / Fold change vs veh, BIVM-ERCC5 /// ERCC5 / RFU, ILF3 / Fold change vs veh, ILF3 / RFU 11762660_at / Fold change /veh 11762660_at / RFU VCAN (11757783_s_at) / Fold change /veh VCAN (11757783_s_at) / RFU DDX43 (11728927_at) / Fold change /veh DDX43 (11728927_at) / RFU KRT8 (11758188_x_at) / Fold change /veh KRT8 (11758188_x_at) / RFU NKD1 (11759106_at) / Fold change /veh NKD1 (11759106_at) / RFU SRD5A1 (11742802_a_at) / Fold change /veh SRD5A1 (11742802_a_at) / RFU TPSAB1 /// TPSB2 (11721975_s_at) / Fold change /veh TPSAB1 /// TPSB2 (11721975_s_at) / RFU GSTM3 (11746129_a_at) / Fold change /veh GSTM3 (11746129_a_at) / RFU IL23R (11737362_x_at) / Fold change /veh IL23R (11737362_x_at) / RFU TMEM51 (11727254_a_at) / Fold change /veh TMEM51 (11727254_a_at) / RFU PIWIL2 (11732686_x_at) / Fold change /veh PIWIL2 (11732686_x_at) / RFU ORM1 (11744905_x_at) / Fold change /veh ORM1 (11744905_x_at) / RFU CCDC152 (11743942_at) / Fold change /veh CCDC152 (11743942_at) / RFU ECM1 (11717891_a_at) / Fold change /veh ECM1 (11717891_a_at) / RFU IL23R (11748794_a_at) / Fold change /veh IL23R (11748794_a_at) / RFU TNFAIP8L3 (11732012_x_at) / Fold change /veh TNFAIP8L3 (11732012_x_at) / RFU MBOAT4 (11741988_at) / Fold change /veh MBOAT4 (11741988_at) / RFU 11764193_at / Fold change /veh 11764193_at / RFU TMEM53 (11763286_at) / Fold change /veh TMEM53 (11763286_at) / RFU MAGEB2 (11727129_at) / Fold change /veh MAGEB2 (11727129_at) / RFU TMEM200A (11744735_a_at) / Fold change /veh TMEM200A (11744735_a_at) / RFU CCDC152 (11751479_a_at) / Fold change /veh CCDC152 (11751479_a_at) / RFU FAM211A (11726209_a_at) / Fold change /veh FAM211A (11726209_a_at) / RFU RGS16 (11746705_a_at) / Fold change /veh RGS16 (11746705_a_at) / RFU VCAN (11755009_s_at) / Fold change /veh VCAN (11755009_s_at) / RFU RHOB (11743442_s_at) / Fold change /veh RHOB (11743442_s_at) / RFU RGS16 (11720943_a_at) / Fold change /veh RGS16 (11720943_a_at) / RFU RGS16 (11720944_at) / Fold change /veh RGS16 (11720944_at) / RFU, VPS4B / Fold change vs veh, VPS4B / RFU, CREB1 / Fold change vs veh, CREB1 / RFU, DNAJC13 / Fold change vs veh, DNAJC13 / RFU, GNAQ / Fold change vs veh, GNAQ / RFU, CDK5R1 / Fold change vs veh, CDK5R1 / RFU, ZRANB3 / Fold change vs veh, ZRANB3 / RFU, CUL4A / Fold change vs veh, CUL4A / RFU, CCNY / Fold change vs veh, CCNY / RFU, UFL1 / Fold change vs veh, UFL1 / RFU, COG3 / Fold change vs veh, COG3 / RFU, DIAPH2 / Fold change vs veh, DIAPH2 / RFU, SKA2 / Fold change vs veh, SKA2 / RFU, AFF3 / Fold change vs veh, AFF3 / RFU, LMF1 / Fold change vs veh, LMF1 / RFU, IPO11 / Fold change vs veh, IPO11 / RFU, DFFB / Fold change vs veh, DFFB / RFU, FOXP1 / Fold change vs veh, FOXP1 / RFU, CARD8 / Fold change vs veh, CARD8 / RFU, STRN3 / Fold change vs veh, STRN3 / RFU, ADK / Fold change vs veh, ADK / RFU, RASSF2 / Fold change vs veh, RASSF2 / RFU, WIPF1 / Fold change vs veh, WIPF1 / RFU, LARP1B / Fold change vs veh, LARP1B / RFU, RASA1 / Fold change vs veh, RASA1 / RFU, RB1 / Fold change vs veh, RB1 / RFU, PPFIA1 / Fold change vs veh, PPFIA1 / RFU, MAT2A / Fold change vs veh, MAT2A / RFU, CCT5 / Fold change vs veh, CCT5 / RFU, WDR92 / Fold change vs veh, WDR92 / RFU, CUX1 / Fold change vs veh, CUX1 / RFU, TTC7A / Fold change vs veh, TTC7A / RFU, TMEM135 / Fold change vs veh, TMEM135 / RFU, DEPTOR / Fold change vs veh, DEPTOR / RFU, CPM / Fold change vs veh, CPM / RFU, DNAJB6 / Fold change vs veh, DNAJB6 / RFU, CACNA2D3 / Fold change vs veh, CACNA2D3 / RFU, DTX4 / Fold change vs veh, DTX4 / RFU, TFCP2 / Fold change vs veh, TFCP2 / RFU, GMCL1 /// GMCL1P1 / Fold change vs veh, GMCL1 /// GMCL1P1 / RFU, AEBP2 / Fold change vs veh, AEBP2 / RFU, SNHG1 /// SNORD22 /// SNORD25 /// SNORD26 /// SNORD27 /// SNORD28 /// SNORD29 /// SNORD31 / Fold change vs veh, SNHG1 /// SNORD22 /// SNORD25 /// SNORD26 /// SNORD27 /// SNORD28 /// SNORD29 /// SNORD31 / Fold change (Aza/veh), C12orf56 (ProbeSet 11735607_a_at) / Fold change (ACY-1035/veh), C12orf56 (ProbeSet 11735607_a_at) / Fold change (Aza/veh), FGFR1OP (ProbeSet 11751329_s_at) / Fold change (ACY-1035/veh), FGFR1OP (ProbeSet 11751329_s_at) / Fold change (Aza/veh), VPS36 (ProbeSet 11739960_a_at) / Fold change (ACY-1035/veh), VPS36 (ProbeSet 11739960_a_at) / RFU SYPL1 (11715823_x_at) / Fold change /veh SYPL1 (11715823_x_at) / RFU IGFBP7 (11715501_s_at) / Fold change /veh IGFBP7 (11715501_s_at) / RFU REEP3 (11722064_at) / Fold change /veh REEP3 (11722064_at) / RFU IGLL1 (11728026_x_at) / Fold change /veh IGLL1 (11728026_x_at): dose or concentration left out as unconfirmed
Conditions: ProbeSet 11722463_a_at; LIST B

Nc1ncn([C@@H]2O[C@H](CO)[C@@H](O)[C@H]2O)c(=O)n1 [azacitidine]
RFU, TNKS2: 47.93 RFU
